This assay deals with Xanthine dehydrogenase/oxidase (Homo sapiens, UniProt P47989). In words: Inhibition of xanthine oxidase by spectrophotometry.

A word on the IC50: it is the midpoint of a concentration-inhibition curve. Low values mean greater potency in that assay, high ones weaker potency in that assay.

Chain of Xanthine dehydrogenase/oxidase (P47989 whole entry): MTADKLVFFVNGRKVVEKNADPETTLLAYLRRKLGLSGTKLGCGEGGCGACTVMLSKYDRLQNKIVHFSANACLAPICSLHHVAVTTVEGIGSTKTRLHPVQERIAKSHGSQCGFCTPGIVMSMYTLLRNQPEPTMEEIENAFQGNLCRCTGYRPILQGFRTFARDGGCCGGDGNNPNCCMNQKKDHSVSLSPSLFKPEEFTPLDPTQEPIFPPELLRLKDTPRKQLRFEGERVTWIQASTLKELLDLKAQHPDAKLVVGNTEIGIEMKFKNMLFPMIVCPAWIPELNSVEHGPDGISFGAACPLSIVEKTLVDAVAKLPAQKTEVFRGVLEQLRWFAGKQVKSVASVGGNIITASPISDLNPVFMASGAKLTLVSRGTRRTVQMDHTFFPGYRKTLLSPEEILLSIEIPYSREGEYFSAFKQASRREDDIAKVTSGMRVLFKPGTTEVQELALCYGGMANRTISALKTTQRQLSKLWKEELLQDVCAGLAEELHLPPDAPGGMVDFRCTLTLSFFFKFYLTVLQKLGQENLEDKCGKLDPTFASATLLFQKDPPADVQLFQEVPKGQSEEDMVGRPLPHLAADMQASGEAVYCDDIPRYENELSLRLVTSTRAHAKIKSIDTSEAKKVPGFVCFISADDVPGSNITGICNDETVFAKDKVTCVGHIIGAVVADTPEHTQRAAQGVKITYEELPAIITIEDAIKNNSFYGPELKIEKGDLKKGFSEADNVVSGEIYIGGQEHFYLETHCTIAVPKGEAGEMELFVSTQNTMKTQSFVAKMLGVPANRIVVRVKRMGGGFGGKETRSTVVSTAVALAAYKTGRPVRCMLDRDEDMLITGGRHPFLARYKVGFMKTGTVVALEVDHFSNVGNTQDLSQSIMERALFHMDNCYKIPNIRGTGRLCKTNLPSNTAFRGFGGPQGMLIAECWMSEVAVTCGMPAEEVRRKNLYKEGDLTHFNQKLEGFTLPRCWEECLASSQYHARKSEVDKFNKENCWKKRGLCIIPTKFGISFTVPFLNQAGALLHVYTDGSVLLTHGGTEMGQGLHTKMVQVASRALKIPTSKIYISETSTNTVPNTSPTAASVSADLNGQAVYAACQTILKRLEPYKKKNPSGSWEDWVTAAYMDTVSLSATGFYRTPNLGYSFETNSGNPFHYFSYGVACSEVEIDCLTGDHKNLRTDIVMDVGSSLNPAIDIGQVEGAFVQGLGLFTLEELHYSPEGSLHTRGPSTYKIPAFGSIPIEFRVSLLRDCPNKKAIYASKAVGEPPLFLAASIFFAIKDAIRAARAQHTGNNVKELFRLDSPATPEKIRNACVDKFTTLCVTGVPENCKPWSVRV

In turn, `COc1ccc(-c2oc3cc(O)c(OC)c(O)c3c(=O)c2OC)cc1` [SANTIN] had an IC50 of 36.5 µM.
`COc1c(O)cc2oc(-c3ccc(O)c(O)c3)c(OC)c(=O)c2c1O` [AXILLARIN] gave an IC50 of 36 µM.

These data come from ChEMBL document CHEMBL1144076, “New guaianolides and xanthine oxidase inhibitory flavonols from ajania fruticulosa” (J Nat Prod, 1999).
